Measured values reported in patent US9944654B2, “Nargenicin compounds and uses thereof as antibacterial agents” (priority 2014, dated 2018).
Values after ≈ are worked out from the molar mass of the structure shown.

Columns and labels:
[1] = target: T1, E. coli DnaE (DNA polymerase III α-subunit from Escherichia coli) (Escherichia coli, UniProt P10443); test: In vitro DnaE single enzyme assay (E. coli); type: biochemical; settings: for IC50: read-out: E. coli DnaE IC50 (converted)
T1 construct: EcDnaE (E. coli DnaE residues 1-1160); 6xHis (N); made in house; host or cells: E. coli BL21(DE3)
T1 sequence (P10443 whole entry, the tested form may be a part): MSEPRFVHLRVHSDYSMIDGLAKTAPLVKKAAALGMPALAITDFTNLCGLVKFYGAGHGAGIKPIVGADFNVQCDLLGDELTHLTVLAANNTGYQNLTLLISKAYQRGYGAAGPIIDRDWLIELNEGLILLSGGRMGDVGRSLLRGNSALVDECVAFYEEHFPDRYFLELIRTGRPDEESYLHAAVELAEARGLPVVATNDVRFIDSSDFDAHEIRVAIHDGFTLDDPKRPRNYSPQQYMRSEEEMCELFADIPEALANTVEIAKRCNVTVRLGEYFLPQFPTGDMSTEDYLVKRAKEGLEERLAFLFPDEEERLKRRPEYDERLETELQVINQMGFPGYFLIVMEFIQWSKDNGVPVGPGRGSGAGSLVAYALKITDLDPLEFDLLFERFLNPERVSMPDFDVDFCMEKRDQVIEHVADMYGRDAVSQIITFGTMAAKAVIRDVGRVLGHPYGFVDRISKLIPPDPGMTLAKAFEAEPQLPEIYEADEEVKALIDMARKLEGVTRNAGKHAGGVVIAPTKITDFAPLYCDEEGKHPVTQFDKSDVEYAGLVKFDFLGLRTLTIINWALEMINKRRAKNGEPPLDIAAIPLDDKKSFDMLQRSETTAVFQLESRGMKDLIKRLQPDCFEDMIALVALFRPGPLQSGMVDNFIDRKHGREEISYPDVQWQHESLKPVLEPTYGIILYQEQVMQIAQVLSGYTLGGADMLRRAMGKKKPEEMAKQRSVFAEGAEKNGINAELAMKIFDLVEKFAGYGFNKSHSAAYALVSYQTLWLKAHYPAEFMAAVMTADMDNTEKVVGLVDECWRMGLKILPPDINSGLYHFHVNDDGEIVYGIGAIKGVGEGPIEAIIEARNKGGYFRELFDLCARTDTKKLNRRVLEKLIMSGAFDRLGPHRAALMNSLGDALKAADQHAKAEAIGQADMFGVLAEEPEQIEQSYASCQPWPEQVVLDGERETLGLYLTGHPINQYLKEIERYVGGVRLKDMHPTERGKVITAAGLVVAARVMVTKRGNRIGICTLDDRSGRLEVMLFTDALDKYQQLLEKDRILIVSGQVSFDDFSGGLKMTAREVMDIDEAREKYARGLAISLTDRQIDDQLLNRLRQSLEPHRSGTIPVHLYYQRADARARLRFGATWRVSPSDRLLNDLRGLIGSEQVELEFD
How it was run: (§1)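 His-tagged E. coli DnaE (residues 1-1160, 0.8 μg/ml) or S. aureus DnaE (residues 1-1065, 0.05 μg/ml) incubated 30 min at 30° C. with activated calf thymus DNA, 0.025 mM dATP/dGTP/dCTP and 0.011 mM 3H-dTTP in Tris pH 7.5/Mg acetate. TCA-precipitated labelled DNA counted.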

[2] = target: T2, S. aureus DnaE (DNA polymerase III α-subunit homolog from Staphylococcus aureus) (Staphylococcus aureus, UniProt Q5HF71); test: biochemical; type: biochemical; settings: for IC50: S. aureus DnaE IC50
T2 construct: SaDnaE (S. aureus DnaE residues 1-1065); 6xHis (N); made in house; host or cells: E. coli BL21-AI
T2 sequence (Q5HF71 1-1065): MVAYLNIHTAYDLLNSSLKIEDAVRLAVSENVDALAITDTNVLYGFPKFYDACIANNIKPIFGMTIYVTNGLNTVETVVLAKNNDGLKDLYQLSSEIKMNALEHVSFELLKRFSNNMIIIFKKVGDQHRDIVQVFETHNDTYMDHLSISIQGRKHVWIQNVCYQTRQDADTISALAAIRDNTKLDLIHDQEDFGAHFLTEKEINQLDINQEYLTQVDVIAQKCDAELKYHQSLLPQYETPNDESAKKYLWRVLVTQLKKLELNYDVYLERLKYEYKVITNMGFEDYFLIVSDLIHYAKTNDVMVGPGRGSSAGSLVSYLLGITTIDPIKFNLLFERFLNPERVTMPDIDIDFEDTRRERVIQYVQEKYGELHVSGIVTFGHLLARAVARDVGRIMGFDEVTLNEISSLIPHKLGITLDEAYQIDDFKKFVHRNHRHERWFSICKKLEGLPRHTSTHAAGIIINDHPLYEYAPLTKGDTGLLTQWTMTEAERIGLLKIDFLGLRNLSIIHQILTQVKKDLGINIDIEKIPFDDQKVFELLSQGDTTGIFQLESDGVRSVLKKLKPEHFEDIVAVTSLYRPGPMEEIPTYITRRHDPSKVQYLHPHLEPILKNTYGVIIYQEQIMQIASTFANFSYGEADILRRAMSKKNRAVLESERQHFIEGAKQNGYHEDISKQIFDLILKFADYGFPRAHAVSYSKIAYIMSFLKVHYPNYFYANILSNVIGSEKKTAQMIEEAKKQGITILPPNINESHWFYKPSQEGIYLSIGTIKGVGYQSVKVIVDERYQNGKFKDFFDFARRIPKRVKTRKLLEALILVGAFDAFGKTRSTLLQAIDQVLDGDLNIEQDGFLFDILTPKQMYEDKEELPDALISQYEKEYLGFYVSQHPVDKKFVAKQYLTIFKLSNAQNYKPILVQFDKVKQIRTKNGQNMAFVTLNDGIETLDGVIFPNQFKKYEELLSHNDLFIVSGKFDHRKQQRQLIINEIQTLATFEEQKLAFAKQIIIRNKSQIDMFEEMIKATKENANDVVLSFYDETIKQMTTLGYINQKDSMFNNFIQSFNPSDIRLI
How it was run: as §1

[3] = system: Escherichia coli MB5747 (LS 883, tolC); test: microbe, parasite or virus in culture; type: cell-based; settings: * = some reduction of growth versus control at […]; for MIC: Escherichia coli, read-out: E. coli LS883 tolC (MIC), MHII broth
[4] = system: Pseudomonas aeruginosa MB5890 (CB1101, efflux-deleted); test: microbe, parasite or virus in culture; type: cell-based; settings: * = some reduction of growth versus control at […]; for MIC: Pseudomonas aeruginosa, read-out: P. aeruginosa MB5890 efflux-del (MIC), MHII broth
[5] = system: Staphylococcus aureus MB6266 (MRSA COL); test: Nargenicin antibacterial assay (MIC), S. aureus; type: cell-based; settings: * = some reduction of growth versus control at […]; for MIC: Staphylococcus aureus, MRSA, read-out: S. aureus COL (MIC), MHII broth + 50% human serum
[6] = system: Streptococcus pneumoniae MB6357 (CL 2883); test: Nargenicin antibacterial assay (MIC), S. pneumoniae; type: cell-based; settings: * = some reduction of growth versus control at […]; for MIC: Streptococcus pneumoniae, read-out: S. pneumoniae MB2883 (MIC), Isosensitest broth

SMILES	IC50 [1] [µM]	IC50 [2] [µM]	MIC [3] [µg/mL]	MIC [4] [µg/mL]	MIC [5] [µg/mL]	MIC [6] [µg/mL]	E. coli DnaE IC50 [1] [µg/mL]	S. aureus DnaE IC50 [2] [µg/mL]	E. coli LS883 tolC (MIC) ([3]; MHII broth) [µg/mL]	P. aeruginosa MB5890 efflux-del (MIC) ([4]; MHII broth) [µg/mL]	S. aureus COL (MIC) ([5]; MHII broth + 50% human serum) [µg/mL]	S. pneumoniae MB2883 (MIC) ([6]; Isosensitest broth) [µg/mL]
CO[C@H]1C[C@H]2C=CC3C4[C@H](O)[C@@H](C)[C@@H](OC(=O)c5ccc[nH]5)[C@@H]3O[C@]42/C(C)=C/[C@@H](C)[C@@H]([C@@H](C)OC(=O)C(=O)OCc2ccncc2)OC1=O.O=C(O)C(F)(F)F [Example 69]	6.31	< 0.00757	1	32	2	> 128						
CO[C@H]1C[C@H]2C=C[C@H]3[C@H]4O[C@]2(/C(C)=C/[C@@H](C)[C@@H]([C@@H](C)O)OC1=O)[C@@H]3C(=O)[C@@H](C)[C@H]4OC(=O)c1ccc[nH]1 [Example 146, (3R,4S,7S,8aS,10aR,11R,12R,13S,14aR,14bS,E)-4-((R)-1-hydroxyethyl)-7-methoxy-1,3,13-trimethyl-6,14-dioxo-3,4,6,7,8,8a,10a,11,12,13,14,14a-dodecahydro-11,14b-epoxynaphtho[2,1-e]oxecin-12-yl 1H-pyrrole-2-carboxylate]	> 195	1.17	128 (≈ 249 µM)	> 128	> 128	128 (≈ 249 µM)						
CO[C@H]1C[C@H]2C=CC3C4[C@H](O)[C@@H](C)[C@@H](OC(=O)c5ccc[nH]5)[C@@H]3O[C@]42/C(C)=C/[C@@H](C)[C@@H]([C@@H](C)OC(=O)C(=O)NC2CC2)OC1=O [Example 117]							11	0.0007	≤0.125	4	≤0.125	128
CO[C@H]1C[C@H]2C=C[C@H]3[C@H]4O[C@]2(/C(C)=C/[C@@H](C)[C@@H]([C@@H](C)O)OC1=O)[C@@H]3[C@H](O)[C@@H](C)[C@H]4OC(=O)c1cc(Br)c[nH]1 [Example 46]	16.8	0.0151	2 (≈ 3.36 µM)	128 (≈ 215 µM)	8	64 (≈ 108 µM)						
CO[C@H]1CC2C=C[C@H]3[C@H]4O[C@]2(/C(C)=C/[C@@H](C)[C@@H](C(C)O)OC1=O)[C@@H]3[C@H](O)[C@@H](C)[C@H]4OC(=O)c1[nH]c(-c2ccsc2)c(-c2ccsc2)c1-c1ccsc1 (stereo partly drawn) [Example 201]	0.525	0.394	> 128	> 128	> 128	128 (≈ 168 µM)						
CO[C@H]1C[C@H]2C=CC3C4[C@H](O)[C@@H](C)[C@@H](OC(=O)c5cc(NC(=O)c6ccccc6)c[nH]5)[C@@H]3O[C@]42/C(C)=C/[C@@H](C)[C@@H]([C@@H](C)O)OC1=O [Example 167, (3R,4S,7S,8aS,11R,12R,13R,14R,14bS,E)-14-hydroxy-4-((R)-1-hydroxyethyl)-7-methoxy-1,3,13-trimethyl-6-oxo-3,4,6,7,8,8a,10a,11,12,13,14,14a-dodecahydro-11,14b-epoxynaphtho[2,1-e]oxecin-12-yl 4-benzamido-1H-pyrrole-2-carboxylate]	> 158	3.15	> 128	> 128	> 128	> 128						
CO[C@H]1CC2C=C[C@H]3[C@H]4O[C@]2(/C(C)=C/[C@@H](C)[C@@H]([C@@H](C)OC(=O)C[n+]2ccc(C(N)=O)cc2)OC1=O)[C@@H]3[C@H](O)[C@@H](C)[C@H]4OC(=O)c1ccc[nH]1 (stereo partly drawn) [Example 70]	13.3	< 0.00884	0.5	16	0.5	> 128						
CO[C@H]1CC2C=C[C@H]3[C@H]4O[C@]2(/C(C)=C/[C@@H](C)[C@@H]([C@@H](C)OC(=O)OC2CCC(O)CC2)OC1=O)[C@@H]3[C@H](O)[C@@H](C)[C@H]4OC(=O)c1ccc[nH]1 (single isomer, unassigned) [Example 34]	106	0.0106	32 (≈ 48.7 µM)	> 128	32	64 (≈ 97.3 µM)						
CC[C@H]1OC(=O)[C@@H](OC)C[C@H]2C=C[C@H]3[C@H]4O[C@]2(/C(C)=C/[C@H]1C)[C@@H]3[C@H](O)C(C)[C@H]4C#N (stereo partly drawn) [Example 189, (3R,4R,7S,8aS,10aR,11R,12S,14R,14aS,14bS,E)-4-ethyl-14-hydroxy-7-methoxy-1,3,13-trimethyl-6-oxo-3,4,6,7,8,8a,10a,11,12,13,14,14a-dodecahydro-11,14b-epoxynaphtho[2,1-e]oxecine-12-carbonitrile]	> 241	144	> 128	> 128	> 128	> 128						
CCCNC(=O)O[C@@H]1[C@@H](C)[C@@H](OC(=O)c2ccc[nH]2)[C@@H]2O[C@@]34/C(C)=C/[C@@H](C)[C@@H]([C@@H](C)OC(=O)NCCC)OC(=O)[C@@H](OC)C[C@H]3C=C[C@@H]2[C@@H]14 [Example 3]	30.6	> 146	> 8	> 128	> 8	> 128						
CO[C@H]1C[C@H]2C=CC3C4[C@H](O)[C@@H](C)[C@@H](OC(=O)c5ccc[nH]5)[C@@H]3O[C@]42/C(C)=C/[C@@H](C)C([C@@H](C)O)NC1=O (stereo partly drawn) [Example 170]	> 194	2.53	128 (≈ 249 µM)	> 128	> 128	> 128						
CO[C@H]1C[C@H]2C=CC3C4[C@H](OC(=O)C(=O)OCCN5CCN(C)CC5)[C@@H](C)[C@@H](OC(=O)c5ccc[nH]5)[C@@H]3O[C@]42/C(C)=C/[C@@H](C)[C@@H]([C@@H](C)OC(=O)C(=O)OCCN2CCN(C)CC2)OC1=O.O=C(O)C(F)(F)F [Example 209]	16.6	< 0.00585	4	> 128	4	> 128						
CO[C@H]1CC2C=C[C@H]3[C@H]4O[C@]2(/C(C)=C/[C@@H](C)[C@@H](C(C)OC(C)=O)OC1=O)[C@@H]3[C@H](O)[C@@H](C)[C@H]4OC(=O)c1ccc[nH]1 (stereo partly drawn) [Example 57]	80.7	< 0.0108	4 (≈ 7.17 µM)	> 128	8	64 (≈ 115 µM)						
CO[C@H]1C[C@H]2C=C[C@H]3[C@H]4O[C@]2(/C(C)=C/[C@@H](C)[C@H](c2ccccc2)OC1=O)[C@@H]3[C@H](O)[C@@H](C)[C@H]4OC(=O)c1ccc[nH]1 [Example 52]	73	1.1	> 128	> 128	> 128	> 128						
CO[C@H]1C[C@H]2C=C[C@H]3[C@H]4O[C@]2(/C(C)=C/[C@@H](C)[C@@H]([C@@H](C)OC(N)=O)OC1=O)[C@@H]3[C@H](OC(N)=O)[C@@H](C)[C@H]4OC(=O)c1ccc[nH]1 [Example 4]	> 166	1.16	> 128	> 128	> 128	> 128						
